Source: patent publication US20230256120A1, “DIAGNOSTIC AGENT FOR PANCREATIC FUNCTION” (HAMAMATSU PHOTONICS K.K., priority 2020, published 2023)

Tested on: MC-I in the pancreas
Test: PET measurement of [^18F]BCPP-BF accumulation in the pancreas of type II diabetes model rats
Assay type: in vivo, rat
Conditions: fatty rats versus lean rats; PET measurement method; after 5 weeks of age; FIG. 2(A)
Text: Male Zucker Leprfa/Leprfa rats (hereinafter also referred to as “fatty rats”) that develop pathological conditions similar to type II diabetes of human adults and male Zucker Leprfa/+ rats (hereinafter also referred to as “lean rats”) as controls thereof were purchased from Charles River Laboratories Japan, Inc., and used for PET measurement at 5, 8, 16, and 26 weeks of age.
The rats were anesthetized with isoflurane and fixed in a gantry of an animal PET camera (SHR-38000, manufactured by Hamamatsu Photonics K.K.). […] After the completion of the PET measurement, a region of interest was set on the pancreas identified from an accumulated PET image 40 to 60 minutes after the administration of D-[^11C]MT, and the amount of [^18F]BCPP-BF accumulated in the region of interest was calculated. Subsequently, the calculated accumulation amount was normalized by the amount of radioactivity administered and the body weight of each individual and defined as an amount (amount (SUV) of radioactivity administered) of [^18F]BCPP-BF accumulated in the pancreas.
The pancreas was excised from each rat immediately after the completion of the PET measurement, and the weight of the excised pancreas was measured. Subsequently, the radioactivity of the excised pancreas was measured using a gamma counter (manufactured by PerkinElmer Inc., 1480 WIZARD). […]

CC(C)(C)n1ncc(OCc2ccc(OCCCC[18F])nc2)c(Cl)c1=O [[^18F]BCPP-BF]
uptake (SUV) of [^18F]BCPP-BF in the pancreas: decreased
